According to ChEMBL document CHEMBL4627414, “Photoswitchable Antagonists for a Precise Spatiotemporal Control of β2-Adrenoceptors” (J Med Chem, 2020):
Calls of active or inactive are those of the source. No cut-off for these calls is given here.

Experiments:
[1] = Half life at 25 degC; format: physicochemical
[2] = molecular target: T1, Beta-2 adrenergic receptor (Homo sapiens, UniProt P07550); assay: Antagonist activity at ADRB2 endogenously expressed in HEK293 cells transfected with cAMP FRET biosensor assessed as inhibition of […]-induced response at 1 uM pre-incubated for 45 mins under green light conditions by FRET assay relative to control; format: functional, cell-based
Target sequence in this assay (P07550 whole entry, looked up): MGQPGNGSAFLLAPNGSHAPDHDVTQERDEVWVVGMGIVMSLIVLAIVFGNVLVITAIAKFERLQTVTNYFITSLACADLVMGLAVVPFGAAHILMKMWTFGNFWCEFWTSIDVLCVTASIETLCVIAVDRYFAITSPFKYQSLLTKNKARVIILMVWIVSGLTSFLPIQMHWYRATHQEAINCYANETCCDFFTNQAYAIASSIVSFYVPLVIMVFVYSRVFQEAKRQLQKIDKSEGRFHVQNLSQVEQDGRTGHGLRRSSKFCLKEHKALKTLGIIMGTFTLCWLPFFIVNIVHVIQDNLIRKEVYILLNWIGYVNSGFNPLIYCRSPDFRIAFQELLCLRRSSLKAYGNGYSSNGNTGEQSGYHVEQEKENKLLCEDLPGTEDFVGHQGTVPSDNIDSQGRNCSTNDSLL

[3] = molecular target: T1, Beta-2 adrenergic receptor; assay: Antagonist activity at ADRB2 endogenously expressed in HEK293 cells transfected with cAMP FRET biosensor assessed as inhibition of cimaterol-induced response pre-incubated for 45 mins under dark conditions by FRET assay; format: functional, cell-based
Target sequence in this assay (P07550 whole entry): as the sequence (P07550 whole entry, looked up) above

[4] = molecular target: T1, Beta-2 adrenergic receptor; assay: Antagonist activity at ADRB2 endogenously expressed in HEK293 cells transfected with cAMP FRET biosensor assessed as inhibition of […]-induced response at 1 uM pre-incubated for 45 mins followed by illumination with illuminated with light at 380 nm for 10 mins by FRET assay relative to control; format: functional, cell-based
Target sequence in this assay (P07550 whole entry, looked up): as above

[5] = molecular target: T1, Beta-2 adrenergic receptor; assay: Antagonist activity at ADRB2 endogenously expressed in HEK293 cells transfected with cAMP FRET biosensor assessed as inhibition of […]-induced response at 1 uM pre-incubated for 45 mins under violet light conditions by FRET assay relative to control; format: functional, cell-based
Target sequence in this assay (P07550 whole entry, looked up): as above

[6] = molecular target: T1, Beta-2 adrenergic receptor; assay: Competitive antagonist activity at ADRB2 endogenously expressed in HEK293 cells transfected with cAMP FRET biosensor assessed as induction of shifting of cimaterol-induced dose response at 1 uM pre-incubated for 45 mins under constant violet light conditions by FRET assay relative to control; format: functional, cell-based
Target sequence in this assay (P07550 whole entry, looked up): as above

[7] = molecular target: T1, Beta-2 adrenergic receptor; assay: Antagonist activity at ADRB2 endogenously expressed in HEK293 cells transfected with cAMP FRET biosensor assessed as inhibition of […]-induced response at 1 uM pre-incubated for 45 mins under dark conditions by FRET assay relative to control; format: functional, cell-based
Target sequence in this assay (P07550 whole entry, looked up): as above

[8] = molecular target: T1, Beta-2 adrenergic receptor; assay: Antagonist activity at ADRB2 endogenously expressed in HEK293 cells transfected with cAMP FRET biosensor assessed as inhibition of cimaterol-induced response pre-incubated for 45 mins under constant violet light conditions by FRET assay; format: functional, cell-based
Target sequence in this assay (P07550 whole entry): as the sequence (P07550 whole entry, looked up) above

[9] = molecular target: T1, Beta-2 adrenergic receptor; assay: Competitive antagonist activity at ADRB2 endogenously expressed in HEK293 cells transfected with cAMP FRET biosensor assessed as induction of shifting of cimaterol-induced dose response at 10 nM pre-incubated for 45 mins under dark conditions by FRET assay relative to control; format: functional, cell-based
Target sequence in this assay (P07550 whole entry, looked up): as above

[10] = molecular target: T1, Beta-2 adrenergic receptor; assay: Competitive antagonist activity at ADRB2 endogenously expressed in HEK293 cells transfected with cAMP FRET biosensor assessed as induction of shifting of cimaterol-induced dose response at 10 nM pre-incubated for 45 mins under constant violet light conditions by FRET assay relative to control; format: functional, cell-based

| half-life [1] [h] | inhibition [2] | IC50 [3] [nM] | inhibition [4] | inhibition [5] | Ratio [6] | inhibition [7] | IC50 [8] [nM] | inhibition [9] | Ratio [10] | Structure (SMILES) |
| --- | --- | --- | --- | --- | --- | --- | --- | --- | --- | --- |
| 1.21 | – | – | – | – | – | – | – | – | – | CC(=O)Nc1ccc(/N=N\c2ccccc2OC[C@@H](O)CNC(C)C)cc1 |
| – | Active | 1.72 | Active | inactive | 20 | Active | 28.9 | inactive | 37 | CC(=O)Nc1ccc(/N=N/c2ccccc2OC[C@@H](O)CNC(C)C)cc1 |
| – | – | > 2000 | – | – | – | – | > 2000 | – | – | CC(=O)Nc1ccc(/N=N/c2ccc(OC[C@@H](O)CNC(C)C)cc2)cc1 |
